Tests used:
[1] = target: T1, cell surface folate receptors on folate receptor positive M109 cells (Mus musculus, UniProt P35846); test: fluorescence measurement of binding to cell surface folate receptors on M109 cells in culture; type: cell-based
T1 construct: cell surface folate receptors on folate receptor positive M109 cells in culture; endogenous in cells; host or cells: M109 cells
Protocol: AlexaFluor 488 C5-maleimide (Molecular Probes, Eugene, Oreg.) was dissolved in dimethyl sulfoxide (DMSO) (0.5 mg in 50 μl DMSO). A 1.5 molar equivalent (0.57 mg) of Folate-Cys was added to the solution and mixed for 4 hours at room temperature. Folate-Cys-AlexaFluor 488 (Folate-AlexaFluor) was purified by reverse-phase HPLC on a C18 column at a flow rate of 1 ml/min. The mobile phase, consisting of 10 mM NH4HCO3 buffer, pH 7.0 (eluent A) and acetonitrile (eluent B), was maintained at a 99:1 A:B ratio for the first minute and then changed to 1:99 A:B in a linear gradient over the next 29 minutes. Folate-Cys-AlexaFluor 488 eluted at 20 minutes. The product was confirmed by mass spectroscopy and the biologic activity was confirmed by fluorescence measurement of its binding to cell surface folate receptors on folate receptor positive M109 cells in culture.
Texas Red C2-maleimide (Molecular Probes, Eugene, Oreg.) was dissolved in dimethyl sulfoxide (DMSO) (1 mg in 200 μl DMSO). A 1.4 molar equivalent (1 mg) of Folate-Cys was added to the solution and mixed for 4 hours at room temperature. […] The product was confirmed by mass spectroscopy and the biologic activity was confirmed by fluorescence measurement of its binding to cell surface folate receptors on folate receptor positive M109 cells in culture.

[2] = tested on: folate receptor on CD133+ Flk1+ endothelial progenitor cells; test: folate-FITC binding to endothelial progenitor cells quantified by flow cytometry; type: cell-based, BALB/c mice; conditions: 100 nM folate-FITC
Protocol: Female 6- to 8-week-old BALB/c mice were injected in the peritoneal cavity with either Complete Freund's Adjuvant (CFA; 50-100 μL), Pseudomonas aeruginosa (1×10^7 CFU (colony forming units)), or Yersinia enterocolitica (1×10^6 CFU). Cells were isolated from the peritoneal cavity by lavage with 8 mL of sterile phosphate-buffered saline (PBS) 2-4 days later. The cells were pelleted by centrifugation (400×g, 10 minutes at room temperature) and resuspended in folate-deficient RPMI-1640 media (FD-RPMI; Gibco) containing 10% heat-inactivated fetal bovine serum (FBS), penicillin (100 IU/mL) and streptomycin (100 μg/mL). Peritoneal extracted cells were seeded at densities of 1×10^6 cells/microcentrifuge tube for antibody and folate conjugate studies.
All binding experiments were conducted on ice or in a 4° C. cold room unless indicated otherwise. All antibody labeling was optimized by titration. Optimal labeling was most often achieved with a 1/1000-1/10,000 dilution of the manufacture's stock antibody solution. After cells were labeled with antibodies, the samples were washed twice with PBS to remove non-specific binding. The samples were then incubated with a 100 nM concentration of folate-FITC for 45 minutes. […] All samples were analyzed by flow cytometry using a Becton Dickinson FACS Calibur (BD, Franklin Lakes, N.J.).

T1 sequence (P35846 25-232): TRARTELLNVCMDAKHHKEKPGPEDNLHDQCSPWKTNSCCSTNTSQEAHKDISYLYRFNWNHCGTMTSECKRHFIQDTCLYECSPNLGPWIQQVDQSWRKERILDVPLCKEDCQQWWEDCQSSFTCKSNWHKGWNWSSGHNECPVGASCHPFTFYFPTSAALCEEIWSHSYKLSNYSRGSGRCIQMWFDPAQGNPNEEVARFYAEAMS

SMILES: N=c1ccc2c(-c3ccc(C(=O)NCCCCCN4C(=O)CC(SCC(NC(=O)CCC(NC(=O)c5ccc(NCc6cnc7nc(N)[nH]c(=O)c7n6)cc5)C(=O)O)C(=O)O)C4=O)cc3C(=O)O)c3ccc(N)c(S(=O)(=O)O)c3oc-2c1S(=O)(=O)O (stereo not shown) [Folate-Cys-AlexaFluor 488]
- biologic activity: binding to cell surface folate receptors [1]: confirmed

SMILES: Nc1nc2ncc(CNc3ccc(C(=O)NC(CCC(=O)NC(CSC4CC(=O)N(CCNS(=O)(=O)c5ccc(C6=c7cc8c9c(c7Oc7c6cc6c%10c7CCCN%10CCC6)CCC[N+]=9CCC8)c(S(=O)(=O)O)c5)C4=O)C(=O)O)C(=O)O)cc3)nc2c(=O)[nH]1 (stereo not shown) [Folate-Cys-Texas Red]
- biologic activity: binding to cell surface folate receptors [1]: confirmed

SMILES: Nc1nc2ncc(CNc3ccc(C(=O)NC(CCC(=O)NCCNC(=S)Nc4ccc(C(=O)O)c(-c5c6ccc(=O)cc-6oc6cc(O)ccc56)c4)C(=O)O)cc3)nc2c(=O)[nH]1 (stereo not shown) [folate-FITC]
- binding to CD133+ Flk1+ endothelial progenitor cells ([2]; 45 minutes, on ice or 4° C., absence of unlabeled folic acid): bound
- binding to CD133+ Flk1+ endothelial progenitor cells with competition ([2]; pre-incubation with 100-fold excess of unlabeled folic acid (10 μM)): competed
